Here are results for two substances from US20260055141A1, “COMPOSITIONS AND METHODS FOR CONTROLLING FOOD INTAKE, ENERGY EXPENDITURE, AND BODY WEIGHT FOR THE TREATMENT OF OBESITY AND METABOLIC DISEASES” (The Trustees of the University of Pennsylvania, priority 2022, published 2026).

pKd: −log10 of the molar value. “And” between values parts separate entries of the source, which are not always exact repeats. Equal values may be shown once. Non-standard residues stand in square brackets, D forms with d. No end group written: not given here.

For series [1], the target named is T1, human GPR75 (372-540 aa region) (Homo sapiens, UniProt O95800).
T1 construct: human GPR75 (372-540 aa region); purchased antibodies-online.com ABIN5709609
The series can be described thus: Surface Plasmon Resonance (SPR) binding at GPR75. The note with it: for Bmax ([Signal (RU)]): SPR fit; for pKd / kd / ka (1/(M*s)): SPR; for kon: read-out: ka (1/(M*s)). On the procedure: SU75-36 binding at the human GPR75 (372-540 aa region; available on the world wide web at antibodies-online.com cat #ABIN5709609) was measured via a Nicoya Open SPR instrument using His-tagged GPR75 bound to an NTA-coated gold sensor (Nicoya cat #SEN-AU-100-10-NTA, range=4.08-204 μM) using HBSS (in-house) at 20 μL/min flow rate. Data was fit via a global, one-to-one model using Nicoya OpenSPR software.

Series [2] in a line: Circular dichroism (CD) spectroscopy, secondary structure. The following applies: 40 μM in 0.5% saline.
Series [3] is classed as in vivo, rat. The note with it: for food intake compared to control: SU75-36 20 or 200 μg, SU75-37 20 μg, 1, 3, 6, 24 h; for body weight change after 24 hours: any dosage, rats fed chow or HFD; for kaolin intake (pica, model of malaise and nausea): rat, in vivo. How it is done: Adult male Sprague-Dawley rats (Charles River) were individually housed under a 12 h-light: 12 h-dark cycle in a temperature and humidity-controlled satellite vivarium and had ad libitum access to water and chow (5001, LabDiet) or a 60% high fat diet (HFD): D12492, Research Diets) and when applicable had ad libitum access to kaolin pellets (K50001, Research Diets). Rats were exposed to kaolin for at least 5 days prior to measuring kaolin consumption in pica testing. Except for studies conducted in the bioDAQ, for all feeding studies rats were housed in hanging wire cages to allow for accurate measurement of food spillage. Experiments were conducted under the National Institutes for Health Guide for the Care and Use of Laboratory Animals and all procedures were approved by the Institutional Animal Care and Use Committee at the University of Pennsylvania.
For cannula implantation, rats were anesthetized by intraperitoneal injection of a mixture containing ketamine (90 mg/kg, Butler Animal Health Supply), xylazine (2.7 mg/kg, Anased), and acepromazine (0.64 mg/kg, Butler Animal Health Supply) (KAX) and then placed into a stereotaxic apparatus. Each rat was stereotaxically implanted with a guide cannula (26-ga, Plastics One) aimed at the fourth ventricle (guide cannula coordinates: on midline. 2.5 mm anterior to occipital suture, 5.2 mm ventral to skull; internal cannula aimed 7.2 mm ventral to skull) or the lateral ventricle (guide cannula coordinates: 1.5 mm lateral to midline, 0.9 mm posterior to bregma. 1.8 mm ventral to skull; internal cannula aimed 3.8 mm ventral to skull). For all cannulas, dummies (no projection beyond guide) were inserted in the guide cannula and left until infusions were performed. For all surgeries, rats received post-operative temperature support and analgesia was provided immediately following surgery and for two post-operative days (2 mg/kg meloxicam).
For all studies measuring food intake following drug treatment, central injections were given at a volume of 2 μL using a Hamilton syringe terminating in an injector tip extending 2.0 mm beyond the guide cannula. For acute treatment days, rats were food deprived for 2 hours before the dark cycle and injections were done immediately prior to the dark cycle onset. Food and kaolin intake was measured 1, 3, 6, and 24 hours after injections were completed and food crumbs were weighed and accounted for between each timepoint. Body weight was measured during injections and 24 hours after. Injection treatments were organized in a counterbalanced, within-subjects design and separated by ≥72 h.
In a separate experiment, chow maintained (n=10) and diet-induced obese (DIO) rats (n=12) were administered 20 μg SU75-36, 200 μg SU75-36, or 20 μg SU75-37 by intracerebroventricular injection to the lateral ventricle and observed over 24 hours. One group of rats was administered a vehicle without a GPR75 inhibitor as a negative control. All rats were given ad libitum access to access to water, kaolin pellets to assess pica behavior, and food, either a standard chow diet or a 60% high fat diet (HFD). The food intake of chow (FIG. 8A) or HFD (FIG. 8B), and kaolin take of chow-maintained rats (FIG. 8C) and HFD-maintained rats (FIG. 8D) of each rat was observed 1, 3, 6, and 24 hours after administration of the GPR75 inhibitor.
Rats were weighed at the beginning of the experiment and 24 hours after administration of the GPR75 inhibitor. The weight change of each rat after 24 hours was then calculated. […] (FIGS. 8E, 8F).

Where [4] appears, read: His-tagged GPR75 on NTA sensor, HBSS, global one-to-one fit.
Setting [5] is: lateral ventricle, chow and HFD rats.

Regarding “H[dS]QGTFTSDLSKYLEEEVREFIWLKNGGPSDVNTDRPGLLDLK-NH2 [SU75-36]”, the “Bmax ([Signal (RU)])” value in series [1] (curves at 10.2-102 μM peptide) turned out to be 69.54 RU. Further, the pKd is 5.11 in series [1] (setting [4]) and 5.11 in series [1] (Nicoya OpenSPR software, one-to-one model, global fit). Moreover, the “kd” value in series [1] (one-to-one model, global fit) amounted to 0.00742 s⁻¹. In addition, in series [1] (one-to-one model, global fit, listed as Drug 36), the “ka (1/(M*s))” value is 956 M⁻¹ s⁻¹. Also, the kon in series [1] came to 956 M⁻¹ s⁻¹. Also, in series [2], the “secondary structure (folded state) from CD spectra” value is recorded as “typical α-helix”. Besides, the “food intake compared to any of the other groups” value in series [3] (lateral ventricle, 200 μg, chow and HFD rats) is reported as “further decrease”. In addition, the “food intake compared to control” value in series [3] (setting [5]) is on record as “significant decrease in food intake”. Besides, in series [3] (lateral ventricle), the “body weight change after 24 hours” value was “significant decrease in weight”. For the same substance, the “kaolin intake (pica, model of malaise and nausea)” value in series [3] is “absence of kaolin intake”.
Consider “TFTSDLSKYLEEEVREFIWLKNGGPSDVNTDRPGLLDLK-NH2 [SU75-37]”, for which the “Bmax ([Signal (RU)])” value in series [1] (curve at 4.9 μM peptide) was 3.80 RU; in series [1] (curve at 4.93 μM peptide), 3.57 RU; in series [1] (curve at 12.3 μM peptide, listed as Drug37), 11.98 RU and 9.39 RU; in series [1] (curve at 24.65 μM peptide), 8.98 RU; in series [1] (curve at 49.3 μM peptide, listed as Drug37), 47.66 RU and 51.69 RU; in series [1] (curve at 92.4 μM peptide) it was 67.67 RU. In addition, the “Bmax ([Signal (RU)])” value in series [1] (curve at 123.23 μM peptide) is reported as 110.32 RU. In series [1] (setting [4]), this substance showed a pKd of 4.62. Also, the “ka (1/(M*s))” value in series [1] (one-to-one model, global fit) was determined as 592 M⁻¹ s⁻¹. Also, in series [1] (one-to-one model, global fit), the “kd” value was found to be 0.0141 s⁻¹. For the same substance, the kon in series [1] was found to be 592 M⁻¹ s⁻¹. In series [2], the “secondary structure (folded state) from CD spectra” value is listed as “typical α-helix”. Besides, the “food intake compared to control” value in series [3] (setting [5]) was “significant decrease in food intake”. Besides, the “body weight change after 24 hours” value in series [3] (lateral ventricle) is recorded as “significant decrease in weight”. The “kaolin intake (pica, model of malaise and nausea)” value in series [3] is given as “absence of kaolin intake”.
